From publication PMC7537338, “CD47/SIRPα blocking peptide identification and synergistic effect with irradiation for cancer immunotherapy” (Journal for Immunotherapy of Cancer, 2020)
Where a SMILES comes first, the peptide text is derived from it. [ ]: non-standard residue; d: D form.

Experiments:
[1] = Pharmacokinetic assay in vivo; details: C57BL/6, mouse, plasma, iv, 40 mg/kg
Procedure: (§1) of pep-20 and pep- 20-D12. The plasma concentration-time curve of pep-20 (E) and
(§2) C57BL/6 mice with weight of 18-20 g were administrated with a single 141
(§3) centrifuged at 8000 rpm for 10 min at the indicated intervals. Plasma wa s 143
(§4) further mixed with 10% HClO4 at a ratio of 2∶1 (v/v) and centrifuged at 16,000 144

in vivo = details: C57BL/6, mouse, iv, 40 mg/kg
Procedure: as §1, §2, §3, §4

[2] = Peptide stability assay in 10% human serum; type: in vitro ADME; details: 200 μM peptide in normal saline, fresh human serum 10% vol/vol, 37°C, sampled 0 min to 48 h, RP-HPLC, triplicates
Procedure: proteolysis compared with parent pep-20. (A, B) Dose response curves of pep-20-D12 interfering CD47-Sirpα interaction. […]
peptide and serum were analyzed by RP-HPLC. Error bars indicate standard deviation of triplicates. Data are represented as means ± SEM. (E, F) The pharmacokinetic analysis […]
of pep-20 and pep- 20-D12.
Data are represented as means ± SEM. […]
human serum (10%, vol/vol).
8h, 24h, 36h and 48h. The acetonitrile-glacial acetic acid mixture was utilized 136 to terminate the enzymatic reaction. After centrifuged at 12000 rpm for 10 min, 137 […]
Pharmacokinetic assays in vivo 140 […]
intravenous dose of 40 mg/kg of peptides. Blood samples were collected an d 142 […]
rpm for 10 min. The supernatant was analyzed by RP-HPLC. The 145 pharmacokinetic parameters of peptides were determined by 146 noncompartmental analysis (NCA) using Phoenix WinNonlin software program 147 5.2.1 (Certara, Princeton, USA). The maximum plasma concentration Cmax and 148 elimination half-life (T1/2) were calculated. 149

[3] = system: MC38 tumor-bearing C57BL/6 mice; assay: Hematological toxicity in MC38 tumor-bearing mice; type: in vivo; details: 2 mg/kg i.p. every day two weeks versus miap301 400 μg every 3 days x5, day 14, n = 4 - 5
Procedure: anti-CD47. (A, B) MC38 tumor-bearing C57BL/6 mice were treated i.p. with 2 mg/kg pep-20-D12 every day for two weeks or 400μg anti -mouse CD47 antibody
(miap301) every 3 days for a total of 5 times, and normal saline or ratIg as the negative controls, respectively (n = 4 - 5). On day 14, hematologic parameters of red blood cell (A), hemoglobin (B) level were analyzed. Data are represented as means ± SEM. Statistical significance was determined by unpaired Student's t test.
111 Mouse toxicity assays
112 Normal C57BL/6 mice were injected s.c. with 2 mg/kg peptides or normal 113 saline as the negative control daily from day 1 to 14 (n = 5). On days 0 and 14, 114 mice blood samples were collected via retro-orbital bleed. For MC38 115 tumor-bearing mice, blood samples were collected after treatment (n = 4 - 5).
116 Hematologic and blood biochemical parameters were analyzed by ADVIA 117 2120i Hematology Analyzer (Siemens, Germany). […]
124 The 3D structure of pep-20 was predicted by pep-FOLD3. […] The ΔdAffinity 126 between pep-20 and pep-20-derived alanine substituation analogue peptides 127 were calculated by Ala-scanning of molecular operating environment (MOE, 128 Chemical Computing Group, CA), which was used to display the structure of 129 pep-20 and docking model of pep-20 and CD47 including interaction of […]

[4] = target: T1, human CD47/SIRPα interaction (Homo sapiens, UniProt Q08722); assay: Blocking assay, human CD47 protein binding to CHO cells expressing human SIRPα (flow cytometry); details: blockade of peptides to hCD47 relative to parent pep-20, Table S4
T1 construct: Human or mouse CD47-IgV-Domain-hIg fusion proteins (20 nM, Sino Biological, China); purchased Sino Biological (hIg fusion); ACROBiosystems (biotinylated human CD47); host or cells: SIRPα partner: CHO cells stably expressing human SIRPα
Procedure: Human or mouse CD47-IgV-Domain-hIg fusion proteins (20 nM, Sino Biological, China), or biotinylated human CD47 protein (20 nM, ACROBiosystems, USA) was incubated with titrating concentrations of peptides or anti-human CD47 antibody (B6H12) in phosphate-buffered saline (PBS, pH 7.4) for 1 hour at 4°C. The mixture was incubated with human or mice SIRPα overexpressed Chinese hamster ovary cells for 30 min at 4°C, washed to remove unbound mixtures and phycoerythrin (PE)-conjugated goat anti-human IgG or PE-conjugated streptavidin was incubated (eBioscience, USA). Cells were then analyzed by flow cytometry (BD Biosciences, USA). The IC50 was determined from sigmoidal dose response curves illustrated by GraphPad Prism.

T1 sequence (Q08722 19-127 limits assumed): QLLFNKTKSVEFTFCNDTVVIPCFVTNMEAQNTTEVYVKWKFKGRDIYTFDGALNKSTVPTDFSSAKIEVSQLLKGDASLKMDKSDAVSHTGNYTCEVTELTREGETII

Compound: C[C@H](NC(=O)[C@@H](CO)NC(=O)[C@@H](Cc1c[nH]c2ccccc12)NC(=O)[C@@H](C)N)C(=O)N[C@H](C(=O)N[C@@H](Cc1c[nH]c2ccccc12)C(=O)N[C@@H](CO)C(=O)N[C@@H](CC(N)=O)C(=O)N[C@@H](Cc1ccc(O)cc1)C(=O)N[C@H](Cc1c[nH]c2ccccc12)C(=O)N[C@H](CCCNC(=N)N)C(=O)N[C@H](Cc1c[nH]cn1)C(=O)O)[C@@H](C)O [pep-20-D12] (H-[dA][dW][dS]ATWSNY[dW][dR][dH]-OH)
- Cmax [1]: 54.5 µg/mL
- half-life (in vivo): 6.36 h
- Time for which the initial concentration was retained in human serum [2]: up to 36 hours
- Blood toxicity (red blood cell, hemoglobin) compared with anti-CD47 antibody [3]: less blood toxicity
- Blocking rate relative to pep-20 (%) [4]: 105%
